From US9980943B2, “Methods of treating muscular dystrophy” (BOARD OF REGENTS OF THE NEVADA SYSTEM OF HIGHER EDUCATION, …, priority 2013, dated 2018)

What was measured:
Assay type in all cases: cell-based, mouse
[1] = tested on: β-galactosidase in CMV-LacZ C2C12 myotubes; test: CMV-LacZ secondary screen in C2C12 myotubes (β-Gal stabilizing assay); settings: C2C12 CMV-LacZ myotubes, fold relative to DMSO
Method in brief: (§1)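 β-Gal level was the read-out, measured in a clonal C2C12 line expressing LacZ from a CMV promoter. Dose-response curves used six concentrations, 0.5 μM up to 40 μM, with duplicate points.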

[2] = tested on: α7 integrin (LacZ reporter in α7βgal+/− myoblasts); test: Myoblast α7+/LacZ integrin FDG assay (Burkin assay in myoblasts, 96-well); settings: α7+/LacZ myoblasts, 96-well
[3] = tested on: β-galactosidase in CMV-LacZ C2C12 myoblasts; test: CMV-LacZ secondary screen in C2C12 myoblasts (β-Gal stabilizing assay); settings: CMV-LacZ C2C12 myoblasts
Method in brief: as §1

[4] = tested on: α7 integrin (LacZ reporter in α7+/LacZ myotubes); test: Myotube α7 integrin FDG assay (Burkin assay in myotubes, 96-well); settings: myotubes

| SMILES | CMV-LACZ in Myotubes, signal relative to DMSO ([1]; 0.5 uM) | CMV-LACZ in Myotubes, signal relative to DMSO ([1]; 1 uM) | CMV-LACZ in Myotubes, signal relative to DMSO ([1]; 5 uM) | CMV-LACZ in Myotubes, signal relative to DMSO ([1]; 10 uM) | CMV-LACZ in Myotubes, signal relative to DMSO ([1]; 20 uM) | CMV-LACZ in Myotubes, signal relative to DMSO ([1]; 40 uM) | Burkin Assay in Myoblasts, signal relative to DMSO ([2]; 0.5 uM) | Burkin Assay in Myoblasts, signal relative to DMSO ([2]; 1 uM) | Burkin Assay in Myoblasts, signal relative to DMSO ([2]; 5 uM) | Burkin Assay in Myoblasts, signal relative to DMSO ([2]; 10 uM) | Burkin Assay in Myoblasts, signal relative to DMSO ([2]; 20 uM) | Burkin Assay in Myoblasts, signal relative to DMSO ([2]; 40 uM) | CMV-LACZ in Myoblasts (β-galactosidase activity relative to DMSO) ([3]; 0.5 uM) | CMV-LACZ in Myoblasts (β-galactosidase activity relative to DMSO) ([3]; 1 uM) | CMV-LACZ in Myoblasts (β-galactosidase activity relative to DMSO) ([3]; 5 uM) | CMV-LACZ in Myoblasts (β-galactosidase activity relative to DMSO) ([3]; 10 uM) | CMV-LACZ in Myoblasts (β-galactosidase activity relative to DMSO) ([3]; 20 uM) | CMV-LACZ in Myoblasts (β-galactosidase activity relative to DMSO) ([3]; 40 uM) | Burkin Assay in Myotubes, α7 integrin LacZ reporter signal relative to DMSO ([4]; 0.5 uM) | Burkin Assay in Myotubes, α7 integrin LacZ reporter signal relative to DMSO ([4]; 1 uM) | further results |
| --- | --- | --- | --- | --- | --- | --- | --- | --- | --- | --- | --- | --- | --- | --- | --- | --- | --- | --- | --- | --- | --- |
| CNC(=O)CSc1nnc(-c2ccc3c(c2)OCO3)n1C [MLS000717689-01] | 0.8415 | 1.0956 | 0.9686 | 0.9569 | 0.9576 | 0.9129 | 1.158 | 1.042 | 1.032 | 1.038 | 0.96 | 0.9866 | 1.0125 | 1.0203 | 1.1129 | 1.0936 | 1.0407 | 0.8996 | 1.111 | 0.9006 | Burkin Assay in Myotubes, α7 integrin LacZ reporter signal relative to DMSO ([4]; 5 uM): 1.048; Burkin Assay in Myotubes, α7 integrin LacZ reporter signal relative to DMSO ([4]; 10 uM): 1.076; Burkin Assay in Myotubes, α7 integrin LacZ reporter signal relative to DMSO ([4]; 20 uM): 0.8283; Burkin Assay in Myotubes, α7 integrin LacZ reporter signal relative to DMSO ([4]; 40 uM): 0.7135 |
| Cn1ccc(C(=O)Nc2cccnc2Cl)n1 [MLS001147478-01] | 1.3536 | 1.3827 | 0.8937 | 1.2959 | 1.0810 | 0.9510 | 1.142 | 1.091 | 1.0569 | 1.192 | 0.9651 | 0.8215 | 1.0721 | 0.8808 | 1.2105 | 1.2999 | 1.0513 | 0.8747 | 1.076 | 0.9677 | Burkin Assay in Myotubes, α7 integrin LacZ reporter signal relative to DMSO ([4]; 5 uM): 0.9933; Burkin Assay in Myotubes, α7 integrin LacZ reporter signal relative to DMSO ([4]; 10 uM): 1.041; Burkin Assay in Myotubes, α7 integrin LacZ reporter signal relative to DMSO ([4]; 20 uM): 0.8876; Burkin Assay in Myotubes, α7 integrin LacZ reporter signal relative to DMSO ([4]; 40 uM): 0.8744 |
| COc1cc(C=O)ccc1OCC(=O)Nc1ccc2c(c1)OCO2 [MLS001123876-01] | 0.8962 | 1.4943 | 0.9002 | 0.9279 | 0.9880 | 1.0300 | 1.041 | 0.8264 | 1.44 | 1.095 | 0.9339 | 0.8844 | 0.8260 | 1.0263 | 0.9251 | 0.9871 | 0.9618 | 0.7333 | 0.866 | 0.8193 | Burkin Assay in Myotubes, α7 integrin LacZ reporter signal relative to DMSO ([4]; 5 uM): 1.1689; Burkin Assay in Myotubes, α7 integrin LacZ reporter signal relative to DMSO ([4]; 10 uM): 1.232; Burkin Assay in Myotubes, α7 integrin LacZ reporter signal relative to DMSO ([4]; 20 uM): 0.7114; Burkin Assay in Myotubes, α7 integrin LacZ reporter signal relative to DMSO ([4]; 40 uM): 1.003 |
| O=c1[nH]c(SCc2ccc(Cl)cc2)nc2ccsc12 [MLS000755214-01] | 0.9543 | 0.8600 | 1.0763 | 1.0591 | 0.9280 | 1.0190 | 1.077 | 1.021 | 0.9757 | 0.9635 | 0.8448 | 0.861 | 1.0190 | 1.1650 | 0.9281 | 1.0994 | 1.0835 | 0.8172 | 1.01 | 0.9661 | Burkin Assay in Myotubes, α7 integrin LacZ reporter signal relative to DMSO ([4]; 5 uM): 0.9321; Burkin Assay in Myotubes, α7 integrin LacZ reporter signal relative to DMSO ([4]; 10 uM): 1.0353; Burkin Assay in Myotubes, α7 integrin LacZ reporter signal relative to DMSO ([4]; 20 uM): 0.9655; Burkin Assay in Myotubes, α7 integrin LacZ reporter signal relative to DMSO ([4]; 40 uM): 0.8312 |
| CCOc1ccccc1NC(=O)c1cccc2c1C(=O)N(C1CCCCC1)C2 [MLS000912726-01] | 0.8527 | 0.9264 | 0.9111 | 1.1041 | 1.2060 | 1.0150 | 1.279 | 1.177 | 0.9838 | 1.02 | 1.1258 | 1.022 | 1.1004 | 0.9692 | 1.0182 | 1.0325 | 1.0257 | 1.0643 | 1.066 | 0.8889 | Burkin Assay in Myotubes, α7 integrin LacZ reporter signal relative to DMSO ([4]; 5 uM): 0.8818; Burkin Assay in Myotubes, α7 integrin LacZ reporter signal relative to DMSO ([4]; 10 uM): 0.886; Burkin Assay in Myotubes, α7 integrin LacZ reporter signal relative to DMSO ([4]; 20 uM): 0.8231; Burkin Assay in Myotubes, α7 integrin LacZ reporter signal relative to DMSO ([4]; 40 uM): 0.8237 |
